Reference: patent US8987194B2, “Mutant Nisin ser 29 derivatives and the use thereof” (priority 2009, dated 2015)
Like-named read-outs stand apart in the source and are kept apart here. Where no end group is shown, it is not given here.

Tests used:
L. lactis HP [1] = assay: Deferred antagonism assay (agar overlay); assay type: cell-based, Lactococcus lactis spp cremoris; conditions: in Table 2 a listed strain = enhanced
Method: (§1) Deferred antagonism assays were performed by replicating strains on GM17 agar plates and allowing them to grow overnight before overlaying with either GM17/BHI/TSB-YE/MH agar (0.75% w/v agar) seeded with the appropriate indicator strain. For higher throughput screening of the S29X bank, deferred antagonism assays were performed by replicating strains using a 96 pin replicator (Boekel) or spotting 5 μl of a fresh overnight culture on GM17 agar plates and allowing them to grow overnight. Following overnight growth the strains were subjected to UV radiation for 30 minutes prior to overlaying with either GM17/BHI/TS/MH agar (0.75% w/v agar) seeded with the appropriate indicator

L. lactis HP [2] = assay: Agarose-based diffusion assay of Nisin A S29 supernatants; assay type: cell-based, L. lactis spp cremoris; conditions: for Measurement of inhibitory zone, Average a + b + c: average of three replicates; for Measurement of inhibitory zone, L. lactis HP (a): replicate a; for Measurement of inhibitory zone, L. lactis HP (b): replicate b; for Measurement of inhibitory zone, L. lactis HP (c): replicate c
Method: The Nisin A S29 derivatives were retested using this assay (See FIG. 1).
The modified agarose-based assay was performed against 2 indicator strains, L. lactis spp cremoris HP (Table. 6) and Listeria monocytogenes LO28 (Table. 7).

[3] = tested on: Gram-positive pathogens including Listeria monocytogenes and/or Staphylococcus aureus; conditions: cited from earlier work
pore formation = conditions: cited from earlier work
[4] = literature reports; cited from earlier work
S. aureus RF122 = assay: Deferred antagonism assay (agar overlay); assay type: cell-based, Staphylococcus aureus; conditions: in Table 2 a listed strain = enhanced
Method: as §1

[5] = tested on: penicillin-susceptible strain of Strep. pneumoniae; conditions: cited from earlier work
gram-negative = conditions: introduction of positively charged residues; cited from earlier work

Row | Substance | Measurement of inhibitory zone, Average a + b + c (L. lactis HP [2]) [mm] | Measurement of inhibitory zone, L. lactis HP (a) (L. lactis HP [2]) [mm] | Measurement of inhibitory zone, L. lactis HP (b) (L. lactis HP [2]) [mm] | Measurement of inhibitory zone, L. lactis HP (c) (L. lactis HP [2]) [mm] | other results
1 | Nisin F |  |  |  |  | bioactivity compared to wild type (natural) Nisin variant (L. lactis HP [1]): Nisin A<Nisin F
2 | Nisin A S29H: Nisin A derivative with H at position 29 (ITSISLCTPGCKTGALMGCNMKTATCHCHIHVSK; cysteine pairing not given here; also: lantibiotic nisin-A post-translational modifications, not placed; UniProt P13068 24-57, looked up, variant S29H) | 10.93 | 11.2 | 10.7 | 10.9 | 
3 | N20P: Nisin hinge region derivative (Field et al., 2008) (ITSISLCTPGCKTGALMGCPMKTATCHCSIHVSK; cysteine pairing not given here; also: lantibiotic nisin-A post-translational modifications, not placed; UniProt P13068 24-57, looked up, variant N20P) |  |  |  |  | bioactivity and specific activity against Gram-positive pathogens [3]: enhanced bioactivity and specific activity
4 | N20P/M21P: Nisin peptide with proline incorporation, literature (ITSISLCTPGCKTGALMGCPPKTATCHCSIHVSK; cysteine pairing not given here; also: lantibiotic nisin-A post-translational modifications, not placed; UniProt P13068 24-57, looked up, variant N20P M21P) |  |  |  |  | pore formation (pore formation): incapable of pore formation
5 | K22E (ITSISLCTPGCKTGALMGCNMETATCHCSIHVSK; UniProt P13068 24-57, looked up, variant K22E) |  |  |  |  | antimicrobial activity of bioengineered derivative relative to Nisin [4]: detrimental impact
6 | Nisin A S29L: Nisin A derivative with L at position 29 (ITSISLCTPGCKTGALMGCNMKTATCHCLIHVSK; cysteine pairing not given here; also: lantibiotic nisin-A post-translational modifications, not placed; UniProt P13068 24-57, looked up, variant S29L) | 12.76 | 12.6 | 13.5 | 12.2 | 
7 | M21E (ITSISLCTPGCKTGALMGCNEKTATCHCSIHVSK; UniProt P13068 24-57, looked up, variant M21E) |  |  |  |  | antimicrobial activity of bioengineered derivative relative to Nisin [4]: detrimental impact
8 | I30W: aromatic residue-containing form of Nisin, literature (ITSISLCTPGCKTGALMGCNMKTATCHCSWHVSK; UniProt P13068 24-57, looked up, variant I30W) |  |  |  |  | antimicrobial activity of bioengineered derivative relative to Nisin [4]: reduced antimicrobial activity
9 | I1W: aromatic residue-containing form of Nisin, literature (WTSISLCTPGCKTGALMGCNMKTATCHCSIHVSK; UniProt P13068 24-57, looked up, variant I1W) |  |  |  |  | antimicrobial activity of bioengineered derivative relative to Nisin [4]: reduced antimicrobial activity
10 | Nisin A S29Q: Nisin A derivative with Q at position 29 (ITSISLCTPGCKTGALMGCNMKTATCHCQIHVSK; cysteine pairing not given here; also: lantibiotic nisin-A post-translational modifications, not placed; UniProt P13068 24-57, looked up, variant S29Q) | 15.30 | 15.3 | 15.2 | 15.4 | 
11 | Nisin A S29I: Nisin A derivative with I at position 29 (ITSISLCTPGCKTGALMGCNMKTATCHCIIHVSK; cysteine pairing not given here; also: lantibiotic nisin-A post-translational modifications, not placed; UniProt P13068 24-57, looked up, variant S29I) | 9.9 | 9.2 | 11.3 | 9.2 | 
12 | K22S: Nisin hinge region derivative (Field et al., 2008) (ITSISLCTPGCKTGALMGCNMSTATCHCSIHVSK; cysteine pairing not given here; also: lantibiotic nisin-A post-translational modifications, not placed; UniProt P13068 24-57, looked up, variant K22S) |  |  |  |  | bioactivity and specific activity against Gram-positive pathogens [3]: enhanced bioactivity and specific activity
13 | Nisin A S29M: Nisin A derivative with M at position 29 (ITSISLCTPGCKTGALMGCNMKTATCHCMIHVSK; cysteine pairing not given here; also: lantibiotic nisin-A post-translational modifications, not placed; UniProt P13068 24-57, looked up, variant S29M) | 13.56 | 13.2 | 14.5 | 13.0 | 
14 | Nisin Z |  |  |  |  | bioactivity compared to wild type (natural) Nisin variant (S. aureus RF122): Nisin A<Nisin Z
15 | N20F: aromatic residue-containing form of Nisin, literature (ITSISLCTPGCKTGALMGCFMKTATCHCSIHVSK; UniProt P13068 24-57, looked up, variant N20F) |  |  |  |  | antimicrobial activity of bioengineered derivative relative to Nisin [4]: reduced antimicrobial activity
16 | Nisin |  |  |  |  | minimum inhibitory concentration (MIC) ([5]; before serial exposure to Nisin (1 mg/L)): 0.4 µg/mL; minimum inhibitory concentration (MIC) ([5]; stable Nisin-resistant mutants after serial exposure to Nisin (1 mg/L)): 6.4 µg/mL
17 | Nisin A S29F: Nisin A derivative with F at position 29 (ITSISLCTPGCKTGALMGCNMKTATCHCFIHVSK; cysteine pairing not given here; also: lantibiotic nisin-A post-translational modifications, not placed; UniProt P13068 24-57, looked up, variant S29F) | 11.0 | 10.6 | 12.2 | 10.2 | 
18 | M21K (ITSISLCTPGCKTGALMGCNKKTATCHCSIHVSK; UniProt P13068 24-57, looked up, variant M21K) |  |  |  |  | outcome with respect to anti-gram-negative activity (gram-negative): more beneficial outcome
